Source: patent US20230331673A1, “COMPOSITION OF COMPOUNDS THAT MODULATE CELL METABOLISM AND METHODS OF USE” (CRESCENTA BIOSCIENCES, priority 2020, published 2023)

Columns and labels:
[1] = molecular target: T1, His6 tagged human recombinant FABP4 (Homo sapiens, UniProt P15090); experiment: FABP4 Tb TR-FRET assay: displacement of BODIPY FL C12 fatty acid from His6-FABP4; details: triplicates, inhibition of BODIPY FL C12 binding
T1 construct: purchased Cayman Chemicals 10009549
From the text: Activity of compounds with FABP4 was profiled using a Terbium (Tb) based time resolved fluorescence energy transfer (TR-FRET) assay. The assay measures the compound mediated displacement of the fluorescent fatty acid BODIPY FL C12 (Thermo Fisher; catalog number D3822) from His6 tagged human recombinant FABP4 (His6-FABP4; Cayman Chemicals, catalog number 10009549) via recording the energy transfer from TB donor molecule on anti-His6-tag antibody to acceptor BODIPY moiety. Briefly, compounds were prepared at a concentration of 0.362 mM and 0.0362 mM, and BODIPY FL C12 was prepared at 4.2 μM, in DMSO. 1.2 μL of each compound or DMSO (vehicle control) and 1.2 μL of BODIPY FL C12 were added into the wells of a 384-well black polypropylene plate. His6-FABP4 and Tb anti-His6 antibody were prepared in the assay buffer (25 mM Tris/HCl, pH 7.4, 0.4 mg/ml γ-globulins, 0.010% NP-40, 1 mM DTT) at a concentration of 83 nM and 49.6 nM, respectively. The protein and antibody solutions were then mixed at a ratio of 34:7 (v/v) and incubated on ice for 30 minutes. The assay was initiated by adding 41 μL of the resulting protein/antibody solution into the wells containing the compounds and BODIPY FL C12. The plate was centrifuged and incubated at room temperature for 10 min. The TR-FRET signals were recorded using an EnVision Multilabel plate reader (PerkinElmer; TB excitation 320 nm, BODIPY FL C12 emission 520 nm; TB emission 615 nm). Relative fluorescence ratio (520 nm*10,000/615 nm) were used to calculate the compound mediated inhibition of BODIPY C12 FL fatty acid binding to FABP4. […] Glucose consumption and FABP4 inhibition is shown below in Table 3 below.

[2] = system: differentiated 3T3-L1 mouse adipocyte cells; experiment: Adipocyte glucose consumption in differentiated 3T3-L1 mouse adipocyte cells (loss of glucose from medium, colorimetric); type: cell-based; details: compound 10 μM, 22 to 24 hours, differentiated 3T3-L1 adipocytes, compound/DMSO, read-out: Glucose consumption (fold change) Mean
Procedure, shortened: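 3T3-L1 cells were differentiated with rosiglitazone, dexamethasone, IBMX and insulin, then used on day 11 or 12. Medium glucose was measured colorimetrically, and consumption was given as mean fold change versus DMSO ± SD.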

T1 sequence (P15090 whole entry): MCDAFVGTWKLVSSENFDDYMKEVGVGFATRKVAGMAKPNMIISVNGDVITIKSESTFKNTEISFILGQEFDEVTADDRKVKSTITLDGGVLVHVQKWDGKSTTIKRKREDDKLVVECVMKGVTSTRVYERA

| Structure (SMILES) | fold induction at 10 µM [2] | inhibition at 1 µM ([1]; 1 μM compound) | further results |
| --- | --- | --- | --- |
| CCCCCCC1CCc2c(n(Cc3cccc(C(=O)O)c3)c3c(C(=O)O)cccc23)C1 (centres unmarked) [9-[(3-carboxyphenyl)methyl]-2-hexyl-2,3,4,9-tetrahydro-1H-carbazole-8-carboxylic acid] | 1.01 |  | FABP4 inhibition (%) at 1 μM Mean ([1]; 1 μM compound): 42.40%; FABP4 inhibition (%) at 10 μM Mean ([1]; 10 μM compound): 80.24% |
| N#Cc1cccc(Cn2c3c(c4cccc(C(=O)O)c42)CCC(CCc2ccccc2)C3)c1 (centres unmarked) [9-[(3-cyanophenyl)methyl]-2-(2-phenylethyl)-2,3,4,9-tetrahydro-1H-carbazole-8-carboxylic acid] |  | 92.7% |  |
| CCCCCCC1CCCc2c(n(Cc3ccccc3C#N)c3c(C(=O)O)cccc23)C1 (centres unmarked) [5-[(2-cyanophenyl)methyl]-7-hexyl-5H,6H,7H,8H,9H,10H-cyclohepta[b]indole-4-carboxylic acid] | 0.91 | 88.5% |  |
| CCCCCCC1CCCc2c(n(Cc3cccc(C(F)(F)F)n3)c3c(C(=O)O)cccc23)C1 (centres unmarked) [7-hexyl-5-{[6-(trifluoromethyl)pyridin-2-yl]methyl}-5H,6H,7H,8H,9H,10H-cyclohepta[b]indole-4-carboxylic acid] |  | 79.7% |  |
| CCCCCCC1CCCc2c(n(Cc3cc(C#N)cs3)c3c(C(=O)O)cccc23)C1 (centres unmarked) [5-[(4-cyanothiophen-2-yl)methyl]-7-hexyl-5H,6H,7H,8H,9H,10H-cyclohepta[b]indole-4-carboxylic acid] |  | 83.3% | inhibition at 10 µM ([1]; 10 μM compound): 89.4% |
| CCCCCCC1CCCc2c(n(Cc3cccc(OC)c3)c3c(C(=O)O)cccc23)C1 (centres unmarked) [7-hexyl-5-[(3-methoxyphenyl)methyl]-5H,6H,7H,8H,9H,10H-cyclohepta[b]indole-4-carboxylic acid] | 1.13 | 93.2% |  |
| CCCCCCC1CCCc2c(n(Cc3ccc4ocnc4c3)c3c(C(=O)O)cccc23)C1 (centres unmarked) [5-[(1,3-benzoxazol-5-yl)methyl]-7-hexyl-5H,6H,7H,8H,9H,10H-cyclohepta[b]indole-4-carboxylic acid] | 0.87 | 88% |  |
| CCCC1CCc2c(c3cccc(C(=O)O)c3n2Cc2cccc(C(N)=O)c2)C1 (centres unmarked) [9-[(3-carbamoylphenyl)methyl]-3-propyl-2,3,4,9-tetrahydro-1H-carbazole-8-carboxylic acid] | 1.1 |  |  |
| CCCCC1Cc2c(n(Cc3cccc(C(N)=O)c3)c3c(C(=O)O)cccc23)C1 (centres unmarked) [2-butyl-4-[(3-carbamoylphenyl)methyl]-1H,2H,3H,4H-cyclopenta[b]indole-5-carboxylic acid] | 1.14 |  |  |
| CCCC1CCc2c1n(Cc1cccc(C(N)=O)c1)c1c(C(=O)O)cccc21 (centres unmarked) [4-[(3-carbamoylphenyl)methyl]-3-propyl-1H,2H,3H,4H-cyclopenta[b]indole-5-carboxylic acid] | 1.18 |  |  |
| CCCCCC1CCCCc2c1c1cccc(C(=O)O)c1n2Cc1cccc(C(N)=O)c1 (centres unmarked) [5-[(3-carbamoylphenyl)methyl]-10-pentyl-5H,6H,7H,8H,9H,10H-cyclohepta[b]indole-4-carboxylic acid] | 1.27 |  |  |
| CCCCCC1CCCc2c1c1cccc(C(=O)O)c1n2Cc1cccc(C#N)c1 (centres unmarked) [9-[(3-cyanophenyl)methyl]-4-pentyl-2,3,4,9-tetrahydro-1H-carbazole-8-carboxylic acid] | 1.13 |  |  |
| CCCCCCC1CCCc2c(n(Cc3cccc(F)n3)c3c(C(=O)O)cccc23)C1 (centres unmarked) [5-[(6-fluoropyridin-2-yl)methyl]-7-hexyl-5H,6H,7H,8H,9H,10H-cyclohepta[b]indole-4-carboxylic acid] | 1.25 |  |  |
| CCCCC1CCCc2c(n(Cc3ccccc3C#N)c3c(C(=O)O)cccc23)C1 (centres unmarked) [7-butyl-5-[(2-cyanophenyl)methyl]-5H,6H,7H,8H,9H,10H-cyclohepta[b]indole-4-carboxylic acid] | 1.1 |  |  |
| CCCC1CCc2c(n(Cc3cccc(C(N)=O)c3)c3c(C(=O)O)cccc23)C1 (centres unmarked) [9-[(3-carbamoylphenyl)methyl]-2-propyl-2,3,4,9-tetrahydro-1H-carbazole-8-carboxylic acid] | 1.09 |  |  |
| CCCCCCC1CCCc2c(n(Cc3ccc(C#N)s3)c3c(C(=O)O)cccc23)C1 (centres unmarked) [5-[(5-cyanothiophen-2-yl)methyl]-7-hexyl-5H,6H,7H,8H,9H,10H-cyclohepta[b]indole-4-carboxylic acid] | 1.05 |  |  |
| CCCCCCC1CCCc2c(n(Cc3ccnc(OC)c3)c3c(C(=O)O)cccc23)C1 (centres unmarked) [7-hexyl-5-[(2-methoxypyridin-4-yl)methyl]-5H,6H,7H,8H,9H,10H-cyclohepta[b]indole-4-carboxylic acid] | 1.12 |  |  |
